These results are taken from patent US20150125457A1, “BONE REPAIR PROMOTER” (DAIICHI SANKYO COMPANY, LIMITED, priority 2012, published 2015).

Bridges are numbered along the chain shown (N, C = ends). Where no end group is shown, it is not given here.

One test has as its target T1, NPR-B (Homo sapiens, UniProt P20594).
T1 sequence (P20594 23-1047): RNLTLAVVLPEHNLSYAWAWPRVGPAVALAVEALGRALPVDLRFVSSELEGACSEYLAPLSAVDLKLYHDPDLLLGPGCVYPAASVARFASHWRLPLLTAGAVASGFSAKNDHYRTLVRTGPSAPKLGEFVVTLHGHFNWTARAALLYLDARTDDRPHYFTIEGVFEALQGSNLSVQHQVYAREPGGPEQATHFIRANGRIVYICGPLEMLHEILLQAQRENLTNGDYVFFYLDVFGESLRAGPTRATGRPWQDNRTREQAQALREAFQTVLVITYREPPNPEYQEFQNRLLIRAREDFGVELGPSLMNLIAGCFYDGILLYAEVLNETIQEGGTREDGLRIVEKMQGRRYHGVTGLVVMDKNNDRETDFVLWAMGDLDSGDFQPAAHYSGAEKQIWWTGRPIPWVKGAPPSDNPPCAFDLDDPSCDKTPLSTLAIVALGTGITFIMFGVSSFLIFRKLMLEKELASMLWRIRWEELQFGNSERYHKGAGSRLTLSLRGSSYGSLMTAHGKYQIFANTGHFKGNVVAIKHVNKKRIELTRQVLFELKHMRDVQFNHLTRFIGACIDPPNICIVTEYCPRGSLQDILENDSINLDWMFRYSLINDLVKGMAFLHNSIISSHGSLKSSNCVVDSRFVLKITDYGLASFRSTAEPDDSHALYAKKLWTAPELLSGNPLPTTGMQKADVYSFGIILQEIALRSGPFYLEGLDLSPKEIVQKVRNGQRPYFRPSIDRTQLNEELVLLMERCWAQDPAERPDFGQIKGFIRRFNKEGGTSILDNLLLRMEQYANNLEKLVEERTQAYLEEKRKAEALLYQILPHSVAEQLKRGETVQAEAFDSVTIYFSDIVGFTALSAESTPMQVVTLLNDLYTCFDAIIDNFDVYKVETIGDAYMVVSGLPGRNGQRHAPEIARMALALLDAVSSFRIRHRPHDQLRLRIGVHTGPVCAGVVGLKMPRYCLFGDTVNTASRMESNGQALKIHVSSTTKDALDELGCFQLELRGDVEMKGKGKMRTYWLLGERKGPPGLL
Conditions: literature reports (Furuya et al. 1992; US 2010-305031); cited from earlier work.

Test [1] relates to rat closed femur fracture model. Put plainly: Rat closed femur fracture model, callus diameter. In kind it is in vivo. Conditions: 0.5 mg/kg/day continuous s.c. for one week; 7 days after fracture; versus vehicle group; FIG. 5B. The procedure: (§1) In accordance with the method of Example 2, a rat closed fracture model was prepared. An administration solution was prepared so as to be a dosage corresponding to 0.5 mg/kg/day by using various NPR-B agonists (CNP derivative A, hCNP-53 (SEQ ID NO: 2), CNP derivative C (CNP-36, amino acid Nos. 18 to 53 of SEQ ID NO: 2), and CNP derivative D (Pro-Gly-CNP37, SEQ ID NO: 15)), and then loaded into an osmotic pump (Model 2001, Alzet). The osmotic pump was buried under the skin of the neck back of the animal retained in a supine position, and continuous subcutaneous administration was performed for one week. Vehicle was administered to the control group. 7 days after the preparation of the bone fracture, the animal was subjected to isoflurane inhalation anesthesia, retained in a supine position to open the abdomen, and then subjected to blood collection from the abdominal aorta. EDTA Na was added to the blood, then the EDTA Na-added blood was centrifuged and the plasma separated, and the resultant was cryopreserved. At a later date, the cGMP level in the plasma was measured by a RIA method using a kit (YSI-7702, YAMASA CORPORATION). After blood collection, the animal was bled for the euthanasia, and then the left femur was resected. Each maximum diameter of the sagittal plane and the coronal plane in the callus was measured, and the average value was used as a callus diameter. In accordance with the method of Example 3, the type X collagen gene expression level in the callus was measured. The measurement was performed for 12 cases in each group.

In a further test the test system is type X collagen gene. Put plainly: Rat closed femur fracture model, cartilage-related marker gene expression (real-time PCR). The note with it: Example 4: 0.5 mg/kg/day continuous s.c. for one week; 7 days after fracture; versus vehicle group; FIG. 5C. The class given is in vivo. The procedure: In accordance with the method of Example 2, a rat closed fracture model was prepared. For an animal in a Sham group, a pin only was inserted into the femur, and a bone fracture was not prepared. An administration solution of CNP derivative A was prepared so as to be a dosage corresponding to 0.5 mg/kg/day, and then loaded into an osmotic pump (model 2001, Alzet). The osmotic pump was buried under the skin of the neck back of the animal, and continuous subcutaneous administration was performed for one week. Vehicle was continuously subcutaneously administered to the control group. 7 days after the preparation of the bone fracture, the animal was subjected to isoflurane inhalation anesthesia, retained in a supine position to open the abdomen, and then bled for the euthanasia. The left femur was resected, and immersed into RNAlater (Life Technologies Corporation). The diaphysis or part of the callus was cut out from the femur that had been refrigerated in RNAlater for one day or more. To the cut-out diaphysis or part of the callus, QIAzol (QIAGEN) was added, and the resultant was crushed with tungsten beads. The total RNA was extracted by an RNeasy Mini Kit (QIAGEN), and 1st strand cDNA was synthesized by a SuperScript VILO cDNA Synthesis Kit (Life Technologies Corporation). The gene expression level was measured by a real-time PCR method using TaqMan Gene Expression Master Mix (Life Technologies Corporation). The measured value was standardized by the gene expression level of ubiquitin-C. The standardization was performed for 12 cases in each group.
as §1

In the case of “CNP6-22: peptide consisting of only the ring structure, amino acid Nos. 6 to 22 of SEQ ID NO: 1 (CFGLKLDRIGSMSGLGC; disulfide 1-17 (inferred))”, in the test with NPR-B, the “NPR-B agonist activity compared with hCNP-22 (in words)” value was “almost the same NPR-B agonist activity as that of hCNP-22”.

Consider “CNP derivative D: Pro-Gly-CNP37, SEQ ID NO: 15; derivative described in WO 2009/067639 (PGQEHPNARKYKGANKKGLSKGCFGLKLDRIGSMSGLGC; CNP derivative D, which disclosed in Am. J. Hum. Gent.(2012), 91(6), 1108-1114)”, for which, in test [1], the “Maximum diameter of the callus generated in the left femur” value (“Maximum diameter of the callus generated” below) was “significantly larger”. Besides, the “Gene expression level of type X collagen in the callus” value (“Gene expression level” below) in the test on type X collagen gene is listed as “significantly suppressed”.

For the substance “CNP derivative C: hCNP-36, 17 consecutive amino acids from the N terminus of hCNP-53 deleted; amino acid Nos. 18 to 53 of SEQ ID NO: 2 (EHPNARKYKGANKKGLSKGCFGLKLDRIGSMSGLGC; mammalian)”, the “Maximum diameter of the callus generated” value in test [1] is “significantly larger”. Moreover, the “Gene expression level” value with type X collagen gene was “significantly suppressed”.

Consider “hCNP-53: human-derived CNP-53, DLRVDTKSRAAWARLLQEHPNARKYKGANKKGLSKGCFGLKLDRIGSMSGLGC: SEQ ID NO: 2 (DLRVDTKSRAAWARLLQEHPNARKYKGANKKGLSKGCFGLKLDRIGSMSGLGC; mammalian) [reference compound]”, for which the “Maximum diameter of the callus generated” value in test [1] is “significantly larger”. Also, in the test on type X collagen gene, the “Gene expression level” value is “suppressed”.
